Source: ChEMBL document CHEMBL1201862, “PubChem BioAssay data set” (2004)
Values joined by “and” are separate entries in the source; they are usually repeats but may differ in a detail not shown here. Equal entries are not always repeated. Active and inactive are the calls of the source.

How the values were obtained:
Streptokinase A = molecular target: T1, Streptokinase A (Streptococcus pyogenes serotype M1, UniProt P10520); test: S. pyogenes streptokinase expression inhibitors, potency, dose response, plasminogen activation absorbance, OD405 (AID 1914); type: functional, Streptococcus pyogenes M1 GAS;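 note: secreted streptokinase activity via plasminogen activation per viability signal from cell pellet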
T1 sequence (P10520 whole entry): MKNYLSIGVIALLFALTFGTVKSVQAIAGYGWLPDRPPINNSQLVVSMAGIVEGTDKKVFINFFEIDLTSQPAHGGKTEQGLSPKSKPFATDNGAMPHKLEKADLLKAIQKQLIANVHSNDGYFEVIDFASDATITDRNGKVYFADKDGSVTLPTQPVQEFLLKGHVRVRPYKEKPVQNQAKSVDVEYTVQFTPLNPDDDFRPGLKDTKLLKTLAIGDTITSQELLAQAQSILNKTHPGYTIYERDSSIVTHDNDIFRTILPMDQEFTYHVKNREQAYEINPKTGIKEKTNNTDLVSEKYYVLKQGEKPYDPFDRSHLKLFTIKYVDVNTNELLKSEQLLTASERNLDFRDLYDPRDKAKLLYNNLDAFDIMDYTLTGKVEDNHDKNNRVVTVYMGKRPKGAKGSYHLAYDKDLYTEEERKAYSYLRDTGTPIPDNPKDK

[1] = tested on: Streptococcus sp. 'group A'; test: growth inhibition of control SK(-) GAS strain, dose response, counter-screen for streptokinase expression inhibitor project, luminescence, kanamycin, BacTiterGlo, confirmation (AID 1900); type: functional, organism-based
Streptococcus = test: Group A Streptococcus viability loss, dose response, counter-screen for streptokinase expression inhibitor project, luminescence, BacTiterGlo (AID 1915); type: functional, organism-based;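 note: potency for reduction of bacterial viability or growth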
X-box-binding protein 1 = X-box-binding protein 1 (Homo sapiens, UniProt P17861); type: functional, Cricetulus griseus;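 note: confirmatory dose-response counter-screen serving a CHOP assay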
Sequence of X-box-binding protein 1 (P17861 whole entry): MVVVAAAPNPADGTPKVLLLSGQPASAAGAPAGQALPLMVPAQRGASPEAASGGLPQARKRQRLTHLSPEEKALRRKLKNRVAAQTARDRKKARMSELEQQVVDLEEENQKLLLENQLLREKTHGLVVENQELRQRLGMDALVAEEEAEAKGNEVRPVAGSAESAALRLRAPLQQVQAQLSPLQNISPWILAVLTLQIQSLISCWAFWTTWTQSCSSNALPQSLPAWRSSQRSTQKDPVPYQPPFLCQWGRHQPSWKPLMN

[2] = compounds displacing fluorescent intercalator from DNA, dose response, counter-screen for HCV NS3 helicase inhibitor project, biochemical, fluorescence (AID 2172)
Genome polyprotein = Genome polyprotein (Hepatitis C virus, UniProt Q2Q167); test: HCV core protein dimerization inhibitors, dose response, biochemical, TR-FRET (AID 2159); set-up: species or system Hepacivirus hominis;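 note: blocks dimerization of HCV core protein measured by TR-FRET between tagged core106 pairs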
Sequence of Genome polyprotein (Q2Q167 whole entry): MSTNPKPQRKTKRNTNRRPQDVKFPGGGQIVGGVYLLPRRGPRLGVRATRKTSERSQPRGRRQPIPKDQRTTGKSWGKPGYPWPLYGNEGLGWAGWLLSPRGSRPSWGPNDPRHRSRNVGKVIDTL

Bcl-2-like protein 10 = Bcl-2-like protein 10 (Homo sapiens, UniProt Q9HD36); test: displacers of TR3 peptide from Bcl-B, primary screen, selectivity assay for Bfl-1 inhibitor project, biochemical, fluorescence polarization, FITC-TR3 peptide (AID 748);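 note: fluorescence polarization from a fluorescein-labelled TR3 peptide binding purified Bcl-B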
Sequence of Bcl-2-like protein 10 (Q9HD36 whole entry): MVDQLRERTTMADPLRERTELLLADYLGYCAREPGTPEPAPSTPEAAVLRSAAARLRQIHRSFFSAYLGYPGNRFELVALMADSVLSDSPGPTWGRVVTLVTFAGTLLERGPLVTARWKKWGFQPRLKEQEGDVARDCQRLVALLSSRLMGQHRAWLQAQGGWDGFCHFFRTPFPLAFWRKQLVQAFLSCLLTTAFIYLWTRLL

[3] = molecular target: Eukaryotic translation initiation factor 4E (Mus musculus, UniProt P63073); test: eIF4E–eIF4G protein interaction inhibitors, dose response, biochemical, TR-FRET (AID 855); type: functional;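 note: potency for disrupting eIF4E binding to eIF4GI seen as loss of FRET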
Sequence of Eukaryotic translation initiation factor 4E (P63073 whole entry): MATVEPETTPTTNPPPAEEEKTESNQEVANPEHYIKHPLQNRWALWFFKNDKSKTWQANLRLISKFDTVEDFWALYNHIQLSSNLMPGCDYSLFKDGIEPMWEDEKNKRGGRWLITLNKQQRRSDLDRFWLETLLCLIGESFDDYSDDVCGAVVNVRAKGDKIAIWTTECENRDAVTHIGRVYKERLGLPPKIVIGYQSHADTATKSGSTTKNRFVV

[4] = molecular target: T2, Tyrosine-protein phosphatase non-receptor type 7 (Homo sapiens, UniProt P35236); test: redox-dependent HePTP inhibition, mechanism study, biochemical, fluorescence (AID 2068); type: functional
T2 sequence (P35236 whole entry): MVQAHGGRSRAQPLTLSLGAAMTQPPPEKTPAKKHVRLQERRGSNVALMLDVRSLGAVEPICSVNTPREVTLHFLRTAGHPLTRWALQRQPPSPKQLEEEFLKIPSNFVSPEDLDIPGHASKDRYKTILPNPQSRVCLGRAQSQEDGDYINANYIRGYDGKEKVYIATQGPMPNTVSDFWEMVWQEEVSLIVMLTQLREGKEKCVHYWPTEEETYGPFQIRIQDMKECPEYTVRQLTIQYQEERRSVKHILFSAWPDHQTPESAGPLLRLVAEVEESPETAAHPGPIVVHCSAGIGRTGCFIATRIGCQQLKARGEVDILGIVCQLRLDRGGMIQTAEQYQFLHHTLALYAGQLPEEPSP

NS3 = NS3 (Hepatitis C virus, UniProt A3EZJ3); test: PubChem AID 2173; set-up: species or system Hepacivirus hominis
Sequence of NS3 (A3EZJ3 whole entry): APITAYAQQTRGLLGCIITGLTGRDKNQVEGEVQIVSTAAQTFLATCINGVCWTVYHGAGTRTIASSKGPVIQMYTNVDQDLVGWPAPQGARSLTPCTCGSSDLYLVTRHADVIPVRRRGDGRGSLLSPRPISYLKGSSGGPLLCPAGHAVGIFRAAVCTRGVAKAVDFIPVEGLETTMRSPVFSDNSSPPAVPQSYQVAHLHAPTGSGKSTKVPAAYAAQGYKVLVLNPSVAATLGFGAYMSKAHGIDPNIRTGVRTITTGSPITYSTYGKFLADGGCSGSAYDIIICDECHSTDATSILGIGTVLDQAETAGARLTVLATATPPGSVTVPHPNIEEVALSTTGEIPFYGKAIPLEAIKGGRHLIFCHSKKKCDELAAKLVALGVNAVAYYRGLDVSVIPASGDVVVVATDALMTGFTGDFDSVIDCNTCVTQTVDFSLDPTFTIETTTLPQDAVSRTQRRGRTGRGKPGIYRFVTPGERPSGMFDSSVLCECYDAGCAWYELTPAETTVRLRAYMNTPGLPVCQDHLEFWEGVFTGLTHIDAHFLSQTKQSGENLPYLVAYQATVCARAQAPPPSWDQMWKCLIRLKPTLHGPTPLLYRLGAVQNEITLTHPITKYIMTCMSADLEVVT

[5] = molecular target: Protein-tyrosine kinase 2-beta (Homo sapiens, UniProt Q14289);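 note: potency of inhibitors of PYK2 kinase phosphorylation of poly-GT substrate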
Sequence of Protein-tyrosine kinase 2-beta (Q14289 whole entry): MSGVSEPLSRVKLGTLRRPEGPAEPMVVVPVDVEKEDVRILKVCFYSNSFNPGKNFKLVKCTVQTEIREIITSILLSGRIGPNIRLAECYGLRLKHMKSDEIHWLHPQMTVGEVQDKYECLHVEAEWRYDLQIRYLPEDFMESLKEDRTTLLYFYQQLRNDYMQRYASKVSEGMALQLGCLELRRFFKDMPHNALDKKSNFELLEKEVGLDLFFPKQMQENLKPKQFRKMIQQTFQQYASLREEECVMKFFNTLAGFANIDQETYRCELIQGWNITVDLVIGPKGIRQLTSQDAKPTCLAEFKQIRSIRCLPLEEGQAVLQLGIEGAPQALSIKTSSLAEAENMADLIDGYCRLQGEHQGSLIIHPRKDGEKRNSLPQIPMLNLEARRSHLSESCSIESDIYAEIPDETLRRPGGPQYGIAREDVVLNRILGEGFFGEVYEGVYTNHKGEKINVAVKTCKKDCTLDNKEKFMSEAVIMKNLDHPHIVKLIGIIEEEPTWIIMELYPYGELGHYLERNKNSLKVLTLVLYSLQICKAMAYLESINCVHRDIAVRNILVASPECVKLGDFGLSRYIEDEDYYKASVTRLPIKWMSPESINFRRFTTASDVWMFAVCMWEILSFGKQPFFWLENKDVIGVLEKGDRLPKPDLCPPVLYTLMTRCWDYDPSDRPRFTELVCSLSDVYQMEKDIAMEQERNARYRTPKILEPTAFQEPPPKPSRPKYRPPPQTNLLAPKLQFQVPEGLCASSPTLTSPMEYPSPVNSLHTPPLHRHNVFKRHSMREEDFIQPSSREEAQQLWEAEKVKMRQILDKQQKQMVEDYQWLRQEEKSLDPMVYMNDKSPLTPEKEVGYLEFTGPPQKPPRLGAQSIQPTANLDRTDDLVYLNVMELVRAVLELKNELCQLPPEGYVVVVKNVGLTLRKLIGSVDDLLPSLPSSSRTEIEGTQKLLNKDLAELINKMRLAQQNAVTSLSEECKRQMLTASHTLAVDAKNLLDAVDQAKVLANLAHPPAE

[6] = molecular target: T3, Rac GTPase-activating protein 1 (Homo sapiens, UniProt Q9H0H5); test: MgcRacGAP GTPase-activating activity inhibitors, confirmation, biochemical, ADP Hunter fluorescence, primary and confirmatory (AID 624330); type: functional
T3 sequence (Q9H0H5 whole entry): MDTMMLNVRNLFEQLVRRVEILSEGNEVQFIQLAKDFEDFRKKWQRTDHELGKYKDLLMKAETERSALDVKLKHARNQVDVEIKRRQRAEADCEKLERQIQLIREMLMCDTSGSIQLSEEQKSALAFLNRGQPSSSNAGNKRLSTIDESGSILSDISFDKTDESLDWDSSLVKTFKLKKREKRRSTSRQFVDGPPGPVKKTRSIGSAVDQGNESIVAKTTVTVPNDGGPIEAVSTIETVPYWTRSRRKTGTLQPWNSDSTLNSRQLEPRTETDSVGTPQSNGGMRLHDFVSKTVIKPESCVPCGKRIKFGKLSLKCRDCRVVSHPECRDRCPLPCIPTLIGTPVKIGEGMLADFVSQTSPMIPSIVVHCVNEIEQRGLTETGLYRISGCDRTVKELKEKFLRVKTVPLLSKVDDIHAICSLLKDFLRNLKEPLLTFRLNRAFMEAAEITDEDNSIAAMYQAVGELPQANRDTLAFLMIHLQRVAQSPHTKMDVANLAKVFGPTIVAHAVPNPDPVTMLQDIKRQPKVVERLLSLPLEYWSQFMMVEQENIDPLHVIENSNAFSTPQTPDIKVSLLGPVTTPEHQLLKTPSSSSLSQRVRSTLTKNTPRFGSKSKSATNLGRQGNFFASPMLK

Nonstructural protein 1 = Nonstructural protein 1 (Influenza A virus, UniProt Q194T2); type: functional, Influenza A virus (A/California/07/2009(H1N1))
Sequence of Nonstructural protein 1 (Q194T2 whole entry): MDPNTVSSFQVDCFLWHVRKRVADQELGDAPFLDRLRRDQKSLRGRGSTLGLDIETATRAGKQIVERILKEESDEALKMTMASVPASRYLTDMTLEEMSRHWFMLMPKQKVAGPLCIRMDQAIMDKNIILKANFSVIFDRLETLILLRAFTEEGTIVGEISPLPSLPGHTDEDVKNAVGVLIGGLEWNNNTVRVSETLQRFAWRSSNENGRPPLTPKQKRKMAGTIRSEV

[7] = human group III sPLA2 inhibitors, dose response, biochemical, QFRET, IC50 (AID 743457);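 note: green fluorescence rise as the enzyme cleaves BODIPY PC-A2 in liposomes; potency for inhibition of the enzyme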
[8] = Cytotoxicity screening for potential Inhibitors of Bacterial Capsule Biogenesis. [Related pubchem assays (depositor defined):AID488970]; type: functional
[9] = molecular target: Dual specificity tyrosine-phosphorylation-regulated kinase 1A (Rattus norvegicus, UniProt Q63470); type: biochemical, Homo sapiens
[10] = molecular target: T4, Histone-lysine N-methyltransferase NSD2 (Homo sapiens, UniProt O96028); type: biochemical
T4 sequence (O96028 whole entry): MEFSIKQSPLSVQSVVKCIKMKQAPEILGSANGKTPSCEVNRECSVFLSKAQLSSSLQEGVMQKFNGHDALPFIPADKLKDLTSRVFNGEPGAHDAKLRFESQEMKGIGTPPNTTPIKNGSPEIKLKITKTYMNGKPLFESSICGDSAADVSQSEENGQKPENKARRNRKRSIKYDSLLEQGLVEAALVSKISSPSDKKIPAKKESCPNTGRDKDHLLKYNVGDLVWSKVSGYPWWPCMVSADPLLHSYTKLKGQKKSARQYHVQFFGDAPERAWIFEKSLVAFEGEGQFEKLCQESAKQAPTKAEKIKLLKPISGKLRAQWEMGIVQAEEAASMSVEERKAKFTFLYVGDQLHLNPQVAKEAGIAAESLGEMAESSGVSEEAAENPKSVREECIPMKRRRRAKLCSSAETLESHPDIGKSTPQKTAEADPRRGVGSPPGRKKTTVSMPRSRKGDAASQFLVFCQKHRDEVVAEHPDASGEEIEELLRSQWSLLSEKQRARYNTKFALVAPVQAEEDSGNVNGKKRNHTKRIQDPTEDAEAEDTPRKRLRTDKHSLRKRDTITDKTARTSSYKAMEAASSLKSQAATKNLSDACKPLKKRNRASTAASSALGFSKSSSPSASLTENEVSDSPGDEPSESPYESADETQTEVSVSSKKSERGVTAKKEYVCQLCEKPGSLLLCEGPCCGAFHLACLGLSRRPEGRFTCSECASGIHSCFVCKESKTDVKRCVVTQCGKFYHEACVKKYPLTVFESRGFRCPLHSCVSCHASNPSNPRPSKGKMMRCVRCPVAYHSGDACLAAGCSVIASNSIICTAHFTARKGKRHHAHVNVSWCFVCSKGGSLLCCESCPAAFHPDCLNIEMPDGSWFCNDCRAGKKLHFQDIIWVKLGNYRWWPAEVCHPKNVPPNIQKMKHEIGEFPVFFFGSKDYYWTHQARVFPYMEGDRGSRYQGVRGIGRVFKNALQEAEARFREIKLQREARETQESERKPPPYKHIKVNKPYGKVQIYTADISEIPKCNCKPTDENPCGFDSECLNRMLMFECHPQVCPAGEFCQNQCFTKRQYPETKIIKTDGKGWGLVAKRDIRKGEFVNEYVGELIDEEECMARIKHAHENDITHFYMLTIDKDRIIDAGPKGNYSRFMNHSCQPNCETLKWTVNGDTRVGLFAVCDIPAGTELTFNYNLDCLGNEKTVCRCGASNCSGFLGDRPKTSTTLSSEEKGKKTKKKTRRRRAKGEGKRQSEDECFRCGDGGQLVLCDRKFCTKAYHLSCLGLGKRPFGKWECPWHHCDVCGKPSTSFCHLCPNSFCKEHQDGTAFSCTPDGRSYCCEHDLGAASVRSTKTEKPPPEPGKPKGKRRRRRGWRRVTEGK

[11] = HeLa cell cytotoxicity, dose response, cytotoxicity control for MgcRacGAP inhibitor project (AID 624300); type: functional
[12] = molecular target: T5, DNA repair protein RAD52 homolog (Homo sapiens, UniProt P43351); type: functional, biochemical
T5 sequence (P43351 whole entry): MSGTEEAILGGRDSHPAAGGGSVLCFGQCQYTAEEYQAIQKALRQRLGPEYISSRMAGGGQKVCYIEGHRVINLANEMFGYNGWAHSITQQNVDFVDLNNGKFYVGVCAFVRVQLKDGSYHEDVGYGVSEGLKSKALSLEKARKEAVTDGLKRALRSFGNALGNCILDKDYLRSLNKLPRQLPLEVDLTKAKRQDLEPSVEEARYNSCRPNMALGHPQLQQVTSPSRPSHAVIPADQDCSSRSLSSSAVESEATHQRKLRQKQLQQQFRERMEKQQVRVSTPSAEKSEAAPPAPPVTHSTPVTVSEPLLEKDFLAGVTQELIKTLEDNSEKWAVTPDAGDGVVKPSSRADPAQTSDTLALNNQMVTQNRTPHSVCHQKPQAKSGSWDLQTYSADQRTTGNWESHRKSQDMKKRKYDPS

For `Cc1cc(O)c(NC(=S)NC(=O)c2ccc(-c3ccc(Cl)cc3)o2)cc1C`, the EC50 (Streptokinase A) was > 150 µM (not active), the EC50 [1] was 0.959 µM (active) and the EC50 (Streptococcus) was 12.2 µM (active). For the same molecule, the “Absolute IC50 (XBP1)” value (X-box-binding protein 1) was 10 µM.
With `CC(=O)c1ccc(NC(=O)c2ccc3nc(-c4ccco4)c(-c4ccco4)nc3c2)cc1` the IC50 [2] was 83.5 µM (not active), the IC50 (Genome polyprotein) was > 49.8 µM (not active) and the IC50 (Bcl-2-like protein 10) was 14.6 µM (active). The IC50 [3] was > 64 µM (inactive), the IC50 [4] was 998 nM (active) and 805 nM (active) and the IC50 (NS3) was 5.88 µM (active). The IC50 [5] was 1.24 µM (active).
With `O=C1c2c(O)ccc(O)c2C(=O)c2c(NCCNCCO)ccc(NCCNCCO)c21` [MITOXANTRONE] the IC50 [6] was 14.5 µM (active), the IC50 (Nonstructural protein 1) was 2.05 µM (active) and the IC50 [7] was > 122 µM (inactive). For the same molecule, the CC50 [8] was < 0.38 µM (active), the AC50 [9] was 1.25 µM (active) and the AC50 [10] was 2.34 µM (active). For the same molecule, the CC50 [11] was 6.34 µM (active) and the AC50 [12] was < 0.244 µM (active).
